Measured values published in ChEMBL document CHEMBL4811255, “Antibacterial and Antifungal Polyketides from the Fungus Aspergillus unguis PSU-MF16” (J Nat Prod, 2021).
Values after ≈ are worked out from the molar mass of the structure shown. Active and inactive are the calls of the source. The calls are words filed in the database; no cut-off is given here.

Legend:
Candida albicans [1] = test: Antifungal activity against Candida albicans NCPF 90028 assessed as fungal growth inhibition incubated for 24 to 48 hrs by CLSI protocol based agar microdilution method; type: functional; details: time 24-48 hrs
Cryptococcus neoformans [2] = test: Antifungal activity against Cryptococcus neoformans ATCC 90113 assessed as fungal growth inhibition incubated for 24 to 48 hrs by CLSI protocol based agar microdilution method; type: functional; details: time 24-48 hrs
Nannizzia gypsea [3] = test: Antifungal activity against Microsporum gypseum assessed as fungal growth inhibition incubated for 4 days by CLSI protocol based agar microdilution method; type: functional; details: 96 h, time 4 day
Staphylococcus aureus [4] = test: Antibacterial activity against Staphylococcus aureus ATCC 25923 assessed as bacterial growth inhibition incubated for 18 hrs by CLSI protocol based agar microdilution method; type: functional
Staphylococcus aureus [5] = test: Antibacterial activity against methicillin-resistant Staphylococcus aureus assessed as bacterial growth inhibition incubated for 18 hrs by CLSI protocol based agar microdilution method; type: functional
Vero [6] = test: Cytotoxicity against African green monkey Vero cells by colorimetric assay; type: cell-based; details: Chlorocebus sabaeus
Staphylococcus aureus [7] = test: Antibacterial activity against Staphylococcus aureus ATCC 25923 assessed as bacterial growth inhibition by CLSI protocol based assay; type: functional
Staphylococcus aureus [8] = test: Antibacterial activity against methicillin-resistant Staphylococcus aureus assessed as bacterial growth inhibition by CLSI protocol based assay; type: functional
Cryptococcus neoformans [9] = test: Antifungal activity against Cryptococcus neoformans ATCC 90113 assessed as fungal growth inhibition by CLSI protocol based assay; type: functional
Vero [10] = test: Cytotoxicity against African green monkey Vero cells incubated for 24 hrs by MTT assay; type: cell-based; details: Chlorocebus sabaeus
Candida albicans [11] = test: Antifungal activity against Candida albicans NCPF 90028 assessed as fungal growth inhibition at 50 ug/ml by CLSI protocol based assay; type: functional, organism-based; details: dose 50.0 µg/ml
Candida albicans [12] = test: Antifungal activity against Candida albicans NCPF 90028 assessed as fungal growth inhibition by CLSI protocol based assay; type: functional
Staphylococcus aureus [13] = test: Antibacterial activity against Staphylococcus aureus ATCC 25923 assessed as bacterial growth inhibition at 50 ug/ml by CLSI protocol based assay; type: functional, organism-based; details: dose 50.0 µg/ml
Staphylococcus aureus [14] = test: Antibacterial activity against methicillin-resistant Staphylococcus aureus assessed as bacterial growth inhibition at 50 ug/ml by CLSI protocol based assay; type: functional, organism-based; details: dose 50.0 µg/ml
Nannizzia gypsea [15] = test: Antifungal activity against Microsporum gypseum assessed as fungal growth inhibition at 50 ug/ml by CLSI protocol based assay; type: functional, organism-based; details: dose 50.0 µg/ml
Vero [16] = test: Cytotoxicity against African green monkey Vero cells at 50 ug/ml incubated for 24 hrs by MTT assay; type: cell-based; details: chlorocebus sabaeus, dose 50 µg/ml
Nannizzia gypsea [17] = test: Antifungal activity against Microsporum gypseum assessed as fungal growth inhibition by CLSI protocol based assay; type: functional

| SMILES | MIC (Candida albicans [1]) [µg/mL] | MIC (Cryptococcus neoformans [2]) [µg/mL] | MIC (Nannizzia gypsea [3]) [µg/mL] | MIC (Staphylococcus aureus [4]) [µg/mL] | MIC (Staphylococcus aureus [5]) [µg/mL] | IC50 (Vero [6]) [µg/mL] | MIC (Staphylococcus aureus [7]) [µg/mL] | MIC (Staphylococcus aureus [8]) [µg/mL] | MIC (Cryptococcus neoformans [9]) [µg/mL] | IC50 (Vero [10]) [µg/mL] | Activity (Candida albicans [11]) | MIC (Candida albicans [12]) [µg/mL] | Activity (Staphylococcus aureus [13]) | Activity (Staphylococcus aureus [14]) | Activity (Nannizzia gypsea [15]) | Activity (Vero [16]) | MIC (Nannizzia gypsea [17]) [µg/mL] |
| --- | --- | --- | --- | --- | --- | --- | --- | --- | --- | --- | --- | --- | --- | --- | --- | --- | --- |
| C[C@@H]1[C@H](O)[C@@H](C)/C=C/C=C/C=C/C=C/C=C/C=C/C=C/[C@H](O[C@@H]2O[C@H](C)[C@@H](O)[C@H](N)[C@@H]2O)C[C@@H]2O[C@](O)(C[C@@H](O)C[C@@H](O)[C@H](O)CC[C@@H](O)C[C@@H](O)CC(=O)O[C@H]1C)C[C@H](O)[C@H]2C(=O)O [AMPHOTERICIN B] | 0.5 (≈ 0.541 µM) | 2 (≈ 2.16 µM) | – | – | – | – | – | – | – | – | – | – | – | – | – | – | – |
| C=C(c1cc(O)c(C)c2c1Oc1cc(O)cc(C)c1C(=O)O2)[C@H](C)O | – | 0.5 (≈ 1.46 µM) | 0.5 (≈ 1.46 µM) | – | – | – | – | – | – | – | – | – | – | – | – | – | – |
| C/C=C(\C)c1cc(O)c(C)c2c1C(=O)Oc1c(C)c(O)c(Cl)c(/C(C)=C/C)c1O2 | 0.25 (≈ 0.603 µM) | 0.25 (≈ 0.603 µM) | 1 (≈ 2.41 µM) | 0.25 (≈ 0.603 µM) | 0.5 (≈ 1.21 µM) | 4.6 (≈ 11.1 µM) | 0.5 (≈ 1.21 µM) | 0.5 (≈ 1.21 µM) | 0.5 (≈ 1.21 µM) | 16 (≈ 38.6 µM) | inactive | – | – | – | – | – | – |
| C/C=C(\C)c1c(Cl)c(O)c(C)c2c1Oc1cc(O)c(Cl)c(C)c1C(=O)O2 | 0.25 (≈ 0.633 µM) | 0.25 (≈ 0.633 µM) | 1 (≈ 2.53 µM) | 0.25 (≈ 0.633 µM) | 0.5 (≈ 1.27 µM) | 4.6 (≈ 11.6 µM) | 2 (≈ 5.06 µM) | 1 (≈ 2.53 µM) | 128 (≈ 324 µM) | 8.9 (≈ 22.5 µM) | – | 200 (≈ 506 µM) | – | – | – | – | – |
| C/C=C(\C)c1cc(O)c(C)c(O)c1C(=O)Oc1cc(/C(C)=C/C)c(C(=O)O)c(O)c1C [AGONODEPSIDE B] | – | 0.5 (≈ 1.17 µM) | 0.5 (≈ 1.17 µM) | – | 0.5 (≈ 1.17 µM) | – | – | 16 (≈ 37.5 µM) | – | – | – | – | – | – | – | – | – |
| C/C=C(\C)c1c2c(c(C)c(O)c1C(=O)O)OC(=O)c1c(C)cc(O)cc1O2 | 0.25 (≈ 0.675 µM) | 0.25 (≈ 0.675 µM) | 1 (≈ 2.7 µM) | 0.25 (≈ 0.675 µM) | 0.5 (≈ 1.35 µM) | 4.6 (≈ 12.4 µM) | – | – | 200 (≈ 540 µM) | – | inactive | – | inactive | inactive | inactive | Non-Toxic | – |
| C/C=C(\C)c1cc(O)c(C)c2c1Oc1cc(O)cc(C)c1C(=O)O2 | – | 0.25 (≈ 0.766 µM) | 1 (≈ 3.06 µM) | – | – | – | 128 (≈ 392 µM) | – | 200 (≈ 613 µM) | – | inactive | – | – | inactive | inactive | Non-Toxic | – |
| C/C=C(\C)c1cc(O)c(C)c2c1C(=O)Oc1c(C)c(O)c(C(=O)O)c(/C(C)=C/C)c1O2 | 0.25 (≈ 0.589 µM) | 0.25 (≈ 0.589 µM) | 1 (≈ 2.36 µM) | 0.25 (≈ 0.589 µM) | 0.5 (≈ 1.18 µM) | 4.6 (≈ 10.8 µM) | – | 64 (≈ 151 µM) | 64 (≈ 151 µM) | – | inactive | – | – | – | inactive | Non-Toxic | 200 (≈ 471 µM) |
| C/C=C(\C)c1c(Cl)c(O)c(C)c2c1Oc1c(Cl)c(O)c(Cl)c(C)c1C(=O)O2 | 0.25 (≈ 0.582 µM) | 0.25 (≈ 0.582 µM) | 1 (≈ 2.33 µM) | 0.25 (≈ 0.582 µM) | 0.5 (≈ 1.16 µM) | 4.6 (≈ 10.7 µM) | 2 (≈ 4.65 µM) | 2 (≈ 4.65 µM) | 8 (≈ 18.6 µM) | 110 (≈ 256 µM) | inactive | – | – | – | inactive | – | – |
| C/C=C(\C)c1cc(O)c(C)c2c1Oc1c(C)c(O)cc(/C(C)=C/C)c1C(=O)O2 | 0.25 (≈ 0.657 µM) | 0.25 (≈ 0.657 µM) | 1 (≈ 2.63 µM) | 0.25 (≈ 0.657 µM) | 0.5 (≈ 1.31 µM) | – | 2 (≈ 5.26 µM) | 1 (≈ 2.63 µM) | 1 (≈ 2.63 µM) | 17 (≈ 44.7 µM) | inactive | – | – | – | – | – | – |
| C/C=C(\C)c1cc(O)c(C)c(OC(=O)c2c(/C(C)=C/C)cc(O)c(C)c2O)c1 [AGONODEPSIDE A] | – | 0.25 (≈ 0.654 µM) | – | 0.25 (≈ 0.654 µM) | 0.25 (≈ 0.654 µM) | – | – | 2 (≈ 5.23 µM) | – | – | – | – | – | – | – | – | – |
| C/C=C(\C)c1cc(O)c(C)c2c1Oc1cc(O)c(Cl)c(C)c1C(=O)O2 | 0.25 (≈ 0.693 µM) | 0.25 (≈ 0.693 µM) | 1 (≈ 2.77 µM) | – | 0.5 (≈ 1.39 µM) | 4.6 (≈ 12.7 µM) | 8 (≈ 22.2 µM) | 8 (≈ 22.2 µM) | 32 (≈ 88.7 µM) | 86 (≈ 238 µM) | – | 8 (≈ 22.2 µM) | – | – | – | – | 8 (≈ 22.2 µM) |
| C/C=C(\C)c1cc(OC(=O)c2c(C)cc(O)cc2O)c(C)c(O)c1C(=O)O | 0.25 (≈ 0.671 µM) | 0.25 (≈ 0.671 µM) | 1 (≈ 2.69 µM) | 0.25 (≈ 0.671 µM) | 0.5 (≈ 1.34 µM) | 4.6 (≈ 12.4 µM) | 128 (≈ 344 µM) | 128 (≈ 344 µM) | 32 (≈ 85.9 µM) | 110 (≈ 295 µM) | inactive | – | – | – | inactive | – | – |
| Cc1c2ccncc2c(C)c2c1[nH]c1ccccc12 [ELLIPTECINE] | – | – | – | – | – | 4 (≈ 16.2 µM) | – | – | – | – | – | – | – | – | – | – | – |
| C/C=C(\C)c1c(Cl)c(OC)c(C)c2c1Oc1c(Cl)c(O)c(Cl)c(C)c1C(=O)O2 | 0.25 (≈ 0.563 µM) | 0.25 (≈ 0.563 µM) | 1 (≈ 2.25 µM) | 0.25 (≈ 0.563 µM) | 0.5 (≈ 1.13 µM) | 4.6 (≈ 10.4 µM) | 4 (≈ 9.01 µM) | 8 (≈ 18 µM) | 16 (≈ 36.1 µM) | 57 (≈ 128 µM) | inactive | – | – | – | inactive | – | – |
| Clc1ccccc1C(c1ccccc1)(c1ccccc1)n1ccnc1 [CLOTRIMAZOLE] | – | – | 2 (≈ 5.8 µM) | – | – | – | – | – | – | – | – | – | – | – | – | – | – |
| C/C=C(\C)c1cc(O)c(C)c(O)c1C(=O)Oc1cc2c(c(O)c1C)C(=O)O[C@@]2(C)CC | 0.25 (≈ 0.586 µM) | 0.25 (≈ 0.586 µM) | 1 (≈ 2.34 µM) | 0.25 (≈ 0.586 µM) | 0.5 (≈ 1.17 µM) | 4.6 (≈ 10.8 µM) | 200 (≈ 469 µM) | 200 (≈ 469 µM) | 200 (≈ 469 µM) | 45 (≈ 106 µM) | inactive | – | – | – | inactive | – | – |
| COC(=O)c1c(C)cc(O)cc1O [METHYL ORSELLINATE] | 0.25 (≈ 1.37 µM) | 0.25 (≈ 1.37 µM) | 1 (≈ 5.49 µM) | 0.25 (≈ 1.37 µM) | 0.5 (≈ 2.74 µM) | 4.6 (≈ 25.3 µM) | – | – | 200 (≈ 1100 µM) | – | inactive | – | inactive | inactive | inactive | Non-Toxic | – |
